For one data set, the system named is human erythrocytes. The data set is described as follows: Hemolysis assay. Format: cell-based. The essentials: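 Heparinised fresh human erythrocytes, 20 vol % in PBS pH 7.4, mixed 1:1 with 1:2 serially diluted peptoid and incubated 1 h at 37 °C. PBS alone as 0% and 0.2 vol % Triton X-100 as 100% hemolysis; after 1200 g spin for 15 min, supernatant A350 read.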

Another data set deals with E. coli ATCC 35218. In kind it is cell-based. The note with it: Table 8; CAMHB.
A further data set is described as follows: MTS assay, NIH 3T3 cells. In kind it is cell-based, mouse. The note with it: NIH 3T3 fibroblast cells; Table 6; 50% inhibitory dose against NIH 3T3 mouse fibroblast cells; read-out: ID50. The method in brief:
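NIH/3T3 cells seeded at 5,000 per well, grown a day in DMEM with 10% FBS, then washed and exposed to serially diluted peptoid in HBSS together with MTS reagent. Absorbance at 490 nm read after 3 hours at 37 °C as a measure of metabolic activity; mean of six replicates.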

In data set [1] the test system is Staphyloccus aureus (ATCC #25923). The data set is described as follows: Murine intraperitoneal infection model. Format: in vivo. The note with it: mouse, S. aureus I.P., 4 mg/kg peptoid I.P.; eleven mice for 1-Nhis6,12. On the procedure:
Using a murine peritoneal injection mouse model, the ability of peptoids to treat infection was evaluated in vivo. The results from three separate studies of peptoid 1 and two of peptoid 1-Nhis6,12 against saline treated controls are shown in FIG. 7. The horizontal line represents the geometric mean of each population.
Murine intraperitoneal infection model. Bacteria was prepared by inoculating 5 mL of MHB with a single colony of Staphyloccus aureus (ATCC #25923) from a freshly streaked plate and grown overnight at 37 C. The following morning, the bacteria was subcultured by diluting 1/3 in MHB and grown for approximately 1 .5 hours. The bacteria were then diluted 10-fold in a 5% mucin in PBS solution and thoroughly mixed. A sample was reserved to later determine the amount of bacteria the mice received.
Mice were weighed, marked, and injected I.P. with 200 uL of S. aureus inoculum. Four hours post infection, mice were treated I.P. with 4 mg/kg peptoid (˜100 ug per mouse). The infection is allowed to proceed overnight. Mice were euthanized by CO2 asphyxiation after 24 hours, and the peritoneal cavity was exposed and lavaged with 5 mL PBS. The lavage was mixed and reserved on ice until plating. The lavages were diluted to 10^−5 (in1/10 increments) in PBS, and all dilutions were plated onto MH agar, in duplicate. 50 uL of lavage was spot plated, allowed to dry, and incubated overnight at 37° C. Colonies were counted the following day, and the CFU/ml of each sample was calculated. Plates that had too many colonies to count were assigned an arbitrary number of 1000 colonies.

The test system of data set [2] is both strains of E. faecalis. Format: cell-based. The conditions noted are these: text summary of Table 7A. As for the experimental part: The activities of ampetoids tested against BSL2 Gram-positive strains, however, compared very favorably to those of pexiganan.
Broad-spectrum antibacterial assays. MICs of compounds were determined by microdilution procedure in Mueller-Hinton broth (MHB) in accordance with CLSI M7-A6 protocols in a manner similar to that described for the screen antibacterial assays. Inoculated microtiter plates were incubated at 35° C. for 24 hours prior to the result being recorded. Four ATCC strains that were used as standards are recommended by CLSI: Pseudomonas aeruginosa ATCC 27853, Escherichia coli ATCC 25922, Staphylococcus aureus ATCC 29213 and Enterococcus faecalis ATCC 29212. Other strains from the ATCC collection include Proteus vulgaris ATCC 49132, Proteus mirabilis ATCC 35659, Klebsiella pneumoniae ATCC 33495, Enterobacter aerogenes ATCC 35029 and Serratia marcescens ATCC 13880. S. aureus NRS100 (COL) is a well characterized methicillian-resistant S. aureus (MRSA) strain. The strains S. aureus VAN1 and S. aureus VAN2, vancomycin-resistant MRSA strains that were isolated in Michigan and Pennsylvania, were the first vancomycin-resistant strains clinically isolated. S. aureus NRS 119 and S. aureus NRS 120 are linezolid-resistant isolates from the Network on Antimicrobial Resistance in S. aureus (NARSA) collection. […]

Consider 1 compound from patent US20120295838A1, “Selective poly-substituted glycine antibiotics and related compositions” (priority 2008, published 2012).

Square brackets hold non-standard residues; d marks the D form. Peptide text beside a SMILES is read from it. Nspe = C[C@H](NCC(=O)O)c1ccccc1; Nlys = NCCCCNCC(=O)O

On to `C[C@@H](c1ccccc1)N(CC(N)=O)C(=O)CN(C(=O)CN(CCCCN)C(=O)CN(C(=O)CN(C(=O)CN(CCCCN)C(=O)CN(C(=O)CN(C(=O)CN(CCCCN)C(=O)CN(C(=O)CN(C(=O)CNCCCCN)[C@@H](C)c1ccccc1)[C@@H](C)c1ccccc1)[C@@H](C)c1ccccc1)[C@@H](C)c1ccccc1)[C@@H](C)c1ccccc1)[C@@H](C)c1ccccc1)[C@@H](C)c1ccccc1` [compound 1, H-(NLys-Nspe-Nspe)4-NH2] (H-[Nlys][Nspe][Nspe][Nlys][Nspe][Nspe][Nlys][Nspe][Nspe][Nlys][Nspe][Nspe]-NH2), for which the HD10 in the data set on human erythrocytes (Table 6, 10% hemolytic dose) was found to be 21 µM; with human erythrocytes (Table 8), 14 µM. The compound also yielded an HD50 in the data set with human erythrocytes (Table 8) of 63 µM. Besides, the “MIC for E. coli ATCC 35218” value in the data set on E. coli ATCC 35218 worked out at 6.3 µM. In addition, the CC50 at 3 h in the data set “MTS assay, NIH 3T3 cells” was 5.1 µM. In addition, the “mice that died prematurely during the exposure period” value in data set [1] is on record as “no mice”. For the same compound, the “MIC, range over both strains of E. faecalis” value in data set [2] was 4 to 8 µg/mL.
